Assays:
FACL4/COX-2 cells = assay: [3H] arachidonic acid release after A23187 (pulse-chase); assay type: cell-based, human; details: A23187 5 μM
Experimental: (§1) FIG. 5: Enzymatic “sinks” for free arachidonic acid protect against TNFα_ and calcium ionophore_mediated cell killing. (A) Determination of cell survival. The cells were induced (+Pon) or not (−Pon) for 24 hr, and TNFα (1 ng/ml) or the calcium ionophore A23187 (5 μM) was added, and the cells were incubated for another 72 hr. The surviving fraction was determined and is plotted relative to that of the same line without TNFα or A23187 treatment. Ctl denotes control cells harboring an empty vector, while FACL4/COX-2 denotes the double stable line. (B) Measurement of the free AA. The FACL4/COX-2 cells were prelabeled with [^3H] AA, induced, and stimulated with A23187 (5 μM), and [^3H] AA release was measured at the indicated time intervals. The values are from one experiment that is representative of four independent determinations.
Arachidonic acid release. Cells were plated on 6 well-plates precoated with poly-L-lysine at 8×10^5 cells per well. They were then prelabeled with [^3H] AA (0.4 μCi/ml medium) (91.8 Ci/mmol, 100 μCi/ml, NEN) for 24 hr. After a wash, serum-free DMEM supplemented with 1% BSA (fatty acid free) was added. […] The AA release stimulated by A23187 was calculated by subtracting the released AA by unstimulated cells, from that by A23187-stimulated counterparts.

[1] = test system: FACL4/COX-2 double stable cells; assay: Cell survival of FACL4/COX-2 double stable cells after TNFα or A23187; assay type: cell-based, human; details: TNFα 1 ng/ml or A23187 5 μM, 72 hr, n=3
Experimental: as §1
Stable cell lines. The ecdysone inducible system (Invitrogen) was used to construct stable lines over-expressing human FACL4, COX-2, COX-2 mutant, and both FACL4 and COX-2. […] The cDNAs were cloned into pIND(SP1) (Neomycin^r). The cDNA constructs, or the empty vector pIND(SP1) were transfected into EcR293 cells, which were then selected in 400 μg/ml geneticin and 400 μg/ml zeocin. A number of single colonies were screened for over-expression of FACL4, COX-2 wild type, and COX-2 mutant by immunoblotting against anti-FACL4 (See Y. Cao et al., 467 FEBS Lett. 263-267 (2000)), and anti-COX-2 antibodies (a gift from Dr. Jacques Maclouf), and by measurement of the CoA ligase activity for FACL4 (See D. B. Wilson et al., 257 J. Biol. Chem. 3510-3515 (1992)), or the PGE2 secretion for COX-2 wild type (ELISA assay, Assay Design, Inc.). The double stable line was generated by stably transfecting the COX-2 stable cells with another pIND(SP1)-FACL4 cDNA construct, in which the FACL4 cDNA was cloned into a pIND(SP1) (hygromycin^r) vector. The cells were selected in 400 μg/ml geneticin, 400 μg/ml zeocin, and 50 μg/ml hygromycin B. The positive colonies were screened as described above.
(§2) Cell survival. Cell viability was determined with the crystal violet staining (See M. Hayakawa et al., 268 J. Biol. Chem. 11290-11295 (1993).

293 cells [2] = assay: Apoptosis by Cell Death Detection ELISA in 293 cells; assay type: cell-based, human; details: 44 hr
Experimental: (§3) FIG. 3: Arachidonic acid induces apoptosis via activation of caspase 3. (A) Determination of cell survival. AA was added to 293 cells at the indicated concentrations and the surviving fraction of cells was determined after 44 hr. The values shown are relative to the viability of cells that were not exposed to AA. (B) Increased apoptosis in cells exposed to AA. Cells were treated with AA (300 μM) or palmitic acid (300 μM) under the same conditions as in A, and then apoptosis was detected with an ELISA. The mean values from triplicate determinations are shown. […] The 293 cells were treated with AA (300 μM; +AA) or vehicle alone (−AA) for 44 hr. The nuclei were stained with DAPI, and DNA strand breaks in individual cells were detected with a fluorescent TUNEL assay. The upper panels are the same field of cells (−AA) photographed under UV (left panels) and FITC filters (right panels). The lower panels illustrate apoptotic cells (+AA). The magnification is 80×. (D) Immunostaining with an anti-active caspase 3 antibody. Upper panels, control cells (−AA); lower panels, cells exposed to 300 μM AA. Left panels, DAPI staining; right panels, immunostaining with an antibody selective for active caspase 3. The magnification is 100×. […] The 293 cells were preincubated with caspase inhibitors (including DMQD, a caspase 3 inhibitor, and YVAD, a caspase 1 and 4 inhibitor (Peptide Institute)) for 1 hr at the indicated concentrations, AA (300 μM) was added, and apoptosis was determined 44 hr later. The values represent the means from triplicate determinations.
(§4) Cell Death Detection ELISA. Cells were plated on 96 well-plates at 1×10^4 cells per well. AA was applied and apoptotic death was determined after 44 hr with the Cell Death Detection ELISA (Boehringer Mannheim).

293 cells [3] = assay: Cell survival (crystal violet staining) in 293 cells; assay type: cell-based, human; details: 293 cells, increasing exogenous AA concentration, 44 hr
Experimental: as §3, §2

COX-2 stable 293 cells = assay: Apoptosis in stably transfected 293 cells with inducible COX-2 over-expression; assay type: cell-based, human
Experimental: (A) Conditional expression level of FACL4 and COX-2 in stably transfected lines. Cells were treated with (+) or without (−) ponasterone (1 μg/ml) for 48 hr, and Western blotting was carried out with anti-FACL4 and anti-COX-2 antibodies, respectively. The loading was normalized with an anti-β actin antibody (ICN Biomedicals). […] The 293 cells stably transfected with an empty control vector (Ctl), FACL4 cDNA, COX-2 cDNA, and both FACL4 and COX-2 cDNAs were uninduced (−Pon) or induced for over-expression (+Pon) as in A. AA (300 μM) was added after 24 hr of induction and apoptosis was determined 44 hr later. […] The plot is a comparison of the relative apoptosis levels among the stable lines and is representative of three independent experiments. The values shown are the averages of triplicate determinations. […] Cells were uninduced (−Pon) or induced for over-expression as above. […] COX inhibitors were administered 6 hr later as indicated. AA (300 μM) was then added after 2 hr and apoptosis was determined 44 hr later. The plot is prepared as in B, and is a representative result from three independent experiments, in which triplicates were performed. Wt=wild-type, Mut=mutant, Met=50 μM 6-methoxy-2-naphthyl acetic acid, Indo=10 μM indomethacin. […] The COX-2, FACL4/COX-2 stable and control cells carrying an empty vector were induced for 48 hr, washed and incubated with 20 μM AA at 37° C. for 30 min. The amount of PGE2 synthesized was determined by ELISA. […] (E) The levels of free AA in the stable lines. The [^3H]
as §4
Stable cell lines. The ecdysone inducible system (Invitrogen) was used to construct stable lines over-expressing human FACL4, COX-2, COX-2 mutant, and both FACL4 and COX-2. […] The cDNAs were cloned into pIND(SP1) (Neomycin^r). The cDNA constructs, or the empty vector pIND(SP1) were transfected into EcR293 cells, which were then selected in 400 μg/ml geneticin and 400 μg/ml zeocin. […] The double stable line was generated by stably transfecting the COX-2 stable cells with another pIND(SP1)-FACL4 cDNA construct, in which the FACL4 cDNA was cloned into a pIND(SP1) (hygromycin^r) vector. The cells were selected in 400 μg/ml geneticin, 400 μg/ml zeocin, and 50 μg/ml hygromycin B. The positive colonies were screened as described above.

caspase 3 = assay: Caspase 3-like activity in AA-treated cells; assay type: cell-based; details: not shown
293 cells [4] = assay: Lipid peroxidation assay (MDA and 4-HNE) in 293 cells; assay type: cell-based, human
Experimental: FIG. 6: Cells exposed to AA show increased lipid peroxidation; apoptosis is blocked by antioxidants and Bcl-2. (A) The level of lipid oxidation products. The 293 cells were treated with AA at the indicated concentrations for 48 hr. The data presented are from one experiment that is representative of two independent experiments. […] Antioxidants were applied to 293 cells at the indicated concentration for 1 hr, and then AA (200 μM) was added. Apoptosis was determined after 44 hr and is shown relative to the level in control cells. […] Cells were transfected with the empty vector (Ctl) or with a cDNA encoding Bcl-2 and then were exposed to AA (300 μM). The level of apoptosis was determined after 44 hr. The values shown indicate the apoptosis level relative to control cells, and represent the means of triplicate determinations (P<0.05). The expression of Bcl-2 was detected by Western blotting. (D) The level of Bcl-2 expression in the stable cells. The stably transfected cells were induced, or not, with ponasterone for 24 or 48 hr. Cell lysates were blotted with an antibody to Bcl-2. Normalization was performed with an anti-β-actin antibody.
Lipid peroxidation assay. Cells were plated and treated with AA for 48 hr. […] The cellular malondialdehyde (MDA) and 4-hydroxynonenal (4-HNE) levels were determined with the lipid peroxidation assay kit (Calbiochem).

CNc1ccc2oc(C[C@H]3O[C@@]4(CC[C@H]3C)O[C@H]([C@H](C)C(=O)c3ccc[nH]3)[C@H](C)C[C@H]4C)nc2c1C(=O)O [A23187]
AA release to the medium in response to A23187, control cells (FACL4/COX-2 cells; control cells): released a large amount of AA
AA release to the medium in response to A23187, over-expression of FACL4 and COX-2 (FACL4/COX-2 cells; induced FACL4/COX-2 cells): completely abolished
surviving fraction, induced cells ([1]; FACL4/COX-2 double stable cells induced with ponasterone): 67.8%
surviving fraction, uninduced cells ([1]; FACL4/COX-2 double stable cells without induction): 37.8%

CCCCC/C=C\C/C=C\C/C=C\C/C=C\CCCC(=O)O [AA, Arachidonic acid]
apoptosis (mono- and oligo-nucleosomes) over the control (293 cells [2]; 293 cells, 300 μM): 18 fold
cell survival, % of the control (293 cells [3]): 23%
fold-increase in apoptosis after fatty acid treatment (COX-2 stable 293 cells; 200 μM): 8.5 fold
reduction of fatty acid-induced apoptosis by inducing COX-2 over-expression (COX-2 stable 293 cells; COX-2 over-expression induced, n=3): 36.7%
maximal increase in caspase 3-like activity compared to control cells (caspase 3): ~4.5 fold
time of peak caspase 3-like activity (caspase 3): 17 h
formation of lipid peroxidation products (293 cells [4]; 293 cells exposed to AA, 48 hr): enhanced formation of malondialdehyde and 4-hydroxy-2(E)-nonenal

z-DMQD-fmk
blocking of AA-induced apoptosis by caspase inhibitor (293 cells [2]; 293 cells preincubated 1 hr with inhibitor, AA 300 μM): significantly blocked apoptosis
effect on generation of peroxidized lipids (293 cells [4]; AA-exposed cells, not shown): did not block the generation of peroxidized lipids

Reference: US20060223779A1, “Method of screening for inhibitors of human Fatty Acid-CoA Ligase 4” (priority 2000, published 2006)
